Measured values: US20230203081A1, “LINCOSAMIDE ANTIBIOTICS AND USES THEREOF” (President and Fellows of Harvard College, priority 2020, published 2023)
In brackets after ≈: the same amount, converted by molar mass. Where two headings read alike, the source gives them in different places.

What was measured:
E. faecalis VRE [1] = test: MIC (CLSI), third E. faecalis VRE line of Table 4; type: cell-based; conditions: Enterococcus faecalis; E. faecalis VRE (Table 4, third VRE line); read-out: MIC
Description: (§1) Minimum inhibitory concentrations (MICs) were determined by broth microdilution method or agar dilution method following the Clinical and Laboratory Standards Institute guidelines. Standard bacterial strains were obtained from American Type Culture Collection (ATCC). Other bacterial strains were obtained from hospitals and commercial sources, so noted in Table 11. Before the start of the MIC experiment, standard and test compound stock solutions were prepared in dimethyl sulfoxide (DMSO, Aldrich D2650) at a stock concentration of 5,120 μg/mL. The compound concentration range typically employed for each experiment was 128-0.06 μg/mL (2.5% final DMSO concentration). Clindamycin was used as a comparator in all experiments and each experiment was performed in triplicate. Specialized procedures were employed for streptococcal and anaerobic strains. All other bacterial strains were sub-cultured on blood agar plates (tryptic soy agar with 5% sheep blood, Hardy Diagnostics) and incubated overnight at 35° C. Organisms were suspended in cation-adjusted Mueller-Hinton broth (CaMHB, BD 212322) and optical density was adjusted to 0.5 McFarland standard. Suspensions were further diluted to obtain a final inoculum of 5×10^5 CFU/mL for broth microdilution experiments.

human erythrocytes = test: Hemolysis of human erythrocytes relative to Triton X-100; type: cell-based; conditions: result in words
Escherichia coli c-ermB = test: MIC, clinically derived E. coli with acquired resistance; type: cell-based
Description: as §1

K. oxytoca Clinical = test: MIC (broth microdilution or agar dilution, CLSI); type: cell-based
Outline: (§2)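 Isolates other than streptococci and anaerobes, which had their own procedures, were grown overnight at 35° C on tryptic soy agar with 5% sheep blood. Suspensions were then diluted to a final inoculum of 5×10^5 CFU/mL in broth microdilution wells.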

S. aureus ATCC 700699 = test: MIC (broth microdilution or agar dilution, CLSI); type: cell-based; conditions: Staphylococcus aureus
Outline: as §2

H. influenzae ATCC 49247 = test: MIC (broth microdilution or agar dilution, CLSI); type: cell-based
Outline: as §2

S. aureus hVISA = test: MIC (broth microdilution or agar dilution, CLSI); type: cell-based
Outline: as §2

A. baumannii ATCC 19606 = test: MIC (broth microdilution or agar dilution, CLSI); type: cell-based
Outline: as §2

P. aeruginosa ATCC 27853 = test: MIC (broth microdilution or agar dilution, CLSI); type: cell-based
Outline: (§3)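 MICs were measured by CLSI broth microdilution or agar dilution over 128-0.06 μg/mL test compound at 2.5% final DMSO, in triplicate. Non-streptococcal, aerobic strains were grown overnight at 35° C on sheep blood agar, suspended in cation-adjusted Mueller-Hinton broth to 0.5 McFarland, and diluted to 5×10^5 CFU/mL.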

E. faecium Line R & VRE = test: MIC (broth microdilution or agar dilution, CLSI); type: cell-based; conditions: Enterococcus faecium, read-out: MIC
Outline: as §3

[2] = system: E. coli MP-74 LptD mutant; test: MIC (broth microdilution or agar dilution, CLSI); type: cell-based; conditions: Escherichia coli
Outline: as §3

C. difficile ATCC 700057 = test: MIC (broth microdilution or agar dilution, CLSI); type: cell-based
Outline: as §3

C. scindens ATCC 35704 = test: MIC (broth microdilution or agar dilution, CLSI); type: cell-based
Outline: as §3

S. aureus MRSA = test: MIC (broth microdilution or agar dilution, CLSI); type: cell-based; conditions: Staphylococcus aureus
Outline: as §3

E. faecium Clinical VRE = test: MIC (broth microdilution or agar dilution, CLSI); type: cell-based; conditions: Enterococcus faecium; E. faecium Clinical VRE; read-out: MIC
Outline: as §3

P. aeruginosa ΔAmex OprM = test: MIC (broth microdilution or agar dilution, CLSI); type: cell-based
Outline: as §3

E. faecium VRE = test: MIC (broth microdilution or agar dilution, CLSI); type: cell-based; conditions: Enterococcus faecium; E. faecium VRE; read-out: MIC
Outline: as §3

S. aureus cErmA = test: MIC (broth microdilution or agar dilution, CLSI); type: cell-based; conditions: Staphylococcus aureus; S. aureus cErmA; read-out: MIC
Outline: as §3

B. fragilis ATCC 25285 = test: MIC (broth microdilution or agar dilution, CLSI); type: cell-based; conditions: Bacteroides fragilis, read-out: MIC
Outline: as §3

E. faecalis VRE [3] = test: MIC (CLSI), second E. faecalis VRE line of Table 4; type: cell-based; conditions: Enterococcus faecalis; E. faecalis VRE (Table 4, second VRE line); read-out: MIC
Description: as §1

E. coli strain SQ110DTC = test: MIC in LB medium against E. coli SQ110DTC and its FSA-513018b-resistant mutants (Table 14); type: cell-based; conditions: Escherichia coli
[4] = Mouse pharmacokinetics i.v. and p.o.; set-up: species or system mice; conditions: in vivo, 60 mg/kg
S. pyogenes ATCC 19615 = test: Murine neutropenic thigh infection model; conditions: neutropenic mouse thigh, S. pyogenes ATCC 19615, 24 h after a single intraperitoneal dose of 60 mg/kg
Description: Animal studies: Animal experiments were performed at the Biology Research Infrastructure Laboratory of Harvard University following IACUC-approved protocols. Animals were maintained in accordance with National Research Council guidelines. Pathogen-free, 5-6-week-old, female CD-1 mice weighing 22-26 grams were obtained from Charles River Laboratories, Inc. (Kingston, N.Y.). Animals were acclimated for a minimum of three days prior to start of the studies. Mice were caged as a group of four per cage, were housed at 21-23° C. with humidity ranging from 30-70%, were exposed to 12-hour light and dark cycles, and were supplied with food and water ad libitum.
Mouse thigh infection studies: Mice were rendered neutropenic by administering cyclophosphamide intraperitoneally, 150 mg/kg four days prior, and 100 mg/kg one day prior to infection. Bacterial strains were cultured overnight on blood agar plates at 35° C. in 5% CO2. […] Homogenates were serially diluted and plated on blood agar plates (each sample was plated in duplicate), and bacterial counts (log10 CFU/thigh) were determined after incubating the plates overnight at 35° C. in 5% CO2. Each experiment was repeated twice, and mean values were calculated (n=4 mice per time point).

[5] = S. aureus HAV#202, ATCC 700699 (VISA), read-out: MIC
[6] = E. faecium HAV#319, Line R & Vanco R
[7] = Staphylococcus aureus, S. aureus HAV#204, hVISA, read-out: MIC

SMILES: CSC1O[C@H]([C@H](NC(=O)[C@H]2NC[C@@H]3C[C@H](CC(C)C)CCO[C@H]32)[C@H](C)Cl)C(O)[C@@H](O)[C@H]1O (stereo partly drawn) [FSA-513018b]
- MIC (E. faecalis VRE [1]): 1 mg/L (≈ 2.02 µM)
- hemolysis (human erythrocytes): non-hemolytic
- MIC (Escherichia coli c-ermB; E. coli HAV#504, Clinical, cErmB): 8 mg/L (≈ 16.2 µM)
- MIC (Escherichia coli c-ermB; Escherichia coli): 8 mg/L (≈ 16.2 µM)
- MIC (K. oxytoca Clinical; K. oxytoca HAV#450, Clinical): 8 mg/L (≈ 16.2 µM)
- MIC (K. oxytoca Clinical; Klebsiella oxytoca, K. oxytoca Clinical, read-out: MIC): 8 mg/L (≈ 16.2 µM)
- MIC (S. aureus ATCC 700699; ATCC700699, S. aureus ATCC 700699, read-out: MIC): 2 mg/L (≈ 4.04 µM)
- MIC (S. aureus ATCC 700699; [5]): 2 mg/L (≈ 4.04 µM)
- MIC (H. influenzae ATCC 49247; H. influenzae HAV#007, ATCC 49247): 1 mg/L (≈ 2.02 µM)
- MIC (H. influenzae ATCC 49247; Haemophilus influenzae, ATCC49247, H. influenzae ATCC 49247, read-out: MIC): 1 mg/L (≈ 2.02 µM)
- MIC (S. aureus hVISA; S. aureus HAV#204, hVISA): 1 mg/L (≈ 2.02 µM)
- MIC (S. aureus hVISA; Staphylococcus aureus, S. aureus hVISA, read-out: MIC): 1 mg/L (≈ 2.02 µM)
- MIC (A. baumannii ATCC 19606; A. baumanii HAV#010, ATCC 19606): 4 mg/L (≈ 8.08 µM)
- MIC (A. baumannii ATCC 19606; Acinetobacter baumannii, ATCC19606, A. baumannii ATCC 19606, read-out: MIC): 4 mg/L (≈ 8.08 µM)
- MIC (P. aeruginosa ATCC 27853; P. aeruginosa HAV#009, ATCC 27853): 128 mg/L (≈ 259 µM)
- MIC (P. aeruginosa ATCC 27853; Pseudomonas aeruginosa, ATCC27853, P. aeruginosa ATCC 27853, read-out: MIC): 128 mg/L (≈ 259 µM)
- MIC (E. faecium Line R & VRE; [6]): ≤ 0.06 mg/L
- MIC (E. faecium Line R & VRE; E. faecium Line R & VRE): 0.06 mg/L (≈ 0.121 µM)
- MIC [2]: 1 mg/L (≈ 2.02 µM)
- MIC (C. difficile ATCC 700057; C. difficile HAV#011, ATCC 700057): 0.25 mg/L (≈ 0.505 µM)
- MIC (C. difficile ATCC 700057; Clostridioides difficile, ATCC700057, C. difficile ATCC 700057, read-out: MIC): 0.25 mg/L (≈ 0.505 µM)
- MIC (C. scindens ATCC 35704; C. scindens HAV#012, ATCC 35704): 0.125 mg/L (≈ 0.252 µM)
- MIC (C. scindens ATCC 35704; [Clostridium] scindens, ATCC35704, C. scindens ATCC 35704, read-out: MIC): 0.125 mg/L (≈ 0.252 µM)
- MIC (S. aureus MRSA): 0.06 mg/L (≈ 0.121 µM)
- MIC (E. faecium Clinical VRE): 1 mg/L (≈ 2.02 µM)
- MIC (P. aeruginosa ΔAmex OprM; P. aeruginosa HAV#039, ΔAmex OprM): 4 mg/L (≈ 8.08 µM)
- MIC (P. aeruginosa ΔAmex OprM; Pseudomonas aeruginosa): 4 mg/L (≈ 8.08 µM)
- MIC (E. faecium VRE): 1 mg/L (≈ 2.02 µM)
- MIC (S. aureus cErmA): 4 mg/L (≈ 8.08 µM)
- MIC (B. fragilis ATCC 25285; ATCC25285, B. fragilis ATCC 25285): 0.5 mg/L (≈ 1.01 µM)
- MIC (B. fragilis ATCC 25285; ATCC25285, B. fragilis HAV#013, ATCC 25285): 0.5 mg/L (≈ 1.01 µM)
- MIC (E. faecalis VRE [3]): 1 mg/L (≈ 2.02 µM)
- MIC (E. coli strain SQ110DTC; E. coli SQ110DTC, WT): 0.03 mg/L (≈ 0.0606 µM)
- MIC (E. coli strain SQ110DTC; clone SA-3R1, mutation 2058G, selection plate 1 μg/mL FSA-513018b): 4 mg/L (≈ 8.08 µM)
- MIC (E. coli strain SQ110DTC; clone SA-3R2, mutation 2059G, selection plate […] FSA-513018b): 2 mg/L (≈ 4.04 µM)
- MIC (E. coli strain SQ110DTC; clone SA-3R9, mutation 2058G, selection plate […] FSA-513018b): 4 mg/L (≈ 8.08 µM)
- MIC (E. coli strain SQ110DTC; clone SA-3R13, mutation 2059G, selection plate 1 μg/mL FSA-513018b): 2 mg/L (≈ 4.04 µM)
- MIC (E. coli strain SQ110DTC; read-out: MICs of resistant clones, SQ110DTC clones selected on agar containing FSA-513018b (A2058G or A2059G in 23S rRNA)): 2 to 4 mg/L (≈ 4.04 to 8.08 µM)
- AUC ([4]; iv): 6.8 ± 1.3 µg·h/mL
- Cmax ([4]; iv): 7.9 ± 3 µg/mL
- MRT ([4]; iv): 1.2 h
- clearance ([4]; iv): 8.9 L/h/kg
- Vd ([4]; iv, read-out: Vss): 12.5 ± 0.4 L/kg
- AUC ([4]; po): 1.6 ± 0.4 µg·h/mL
- Cmax ([4]; po): 1.6 ± 0.7 µg/mL
- bioavailability ([4]; po): 24%
- reduction in bacterial burden vs clindamycin- and vehicle-treated controls (S. pyogenes ATCC 19615): statistically significant reductions

SMILES: CN[C@H](CC(C)C)C(=O)N[C@H]1C(=O)N[C@@H](CC(N)=O)C(=O)N[C@H]2C(=O)N[C@H]3C(=O)N[C@H](C(=O)N[C@H](C(=O)O)c4cc(O)cc(O)c4-c4cc3ccc4O)[C@H](O)c3ccc(c(Cl)c3)Oc3cc2cc(c3O[C@@H]2O[C@H](CO)[C@@H](O)[C@H](O)[C@H]2O[C@H]2C[C@](C)(N)[C@H](O)[C@H](C)O2)Oc2ccc(cc2Cl)[C@H]1O [Vancomycin]
- MIC (S. aureus ATCC 700699; ATCC 700699 / VISA): 8 mg/L (≈ 5.52 µM)
- MIC (H. influenzae ATCC 49247; Haemophilus influenzae, ATCC49247): > 64 mg/L
- MIC (S. aureus hVISA; Staphylococcus aureus): 2 mg/L (≈ 1.38 µM)

SMILES: CC(=O)NC[C@H]1CN(c2ccc(N3CCOCC3)c(F)c2)C(=O)O1 [Linezolid]
- MIC (S. aureus ATCC 700699; [5]): 2 mg/L (≈ 5.93 µM)
- MIC (S. aureus hVISA; [7]): 2 mg/L (≈ 5.93 µM)

SMILES: CC[C@H]1OC(=O)[C@H](C)[C@@H](O[C@H]2C[C@@](C)(OC)[C@@H](O)[C@H](C)O2)[C@H](C)[C@@H](O[C@@H]2O[C@H](C)C[C@H](N(C)C)[C@H]2O)[C@](C)(O)C[C@@H](C)CN(C)[C@H](C)[C@@H](O)[C@]1(C)O [Azithromycin]
- MIC (K. oxytoca Clinical; Klebsiella oxytoca, K. oxytoca HAV#450, Clinical, read-out: MIC): 16 mg/L (≈ 21.4 µM)
- MIC (S. aureus ATCC 700699; [5]): > 64 mg/L
- MIC (S. aureus hVISA; [7]): > 64 mg/L
- MIC (A. baumannii ATCC 19606; Acinetobacter baumannii, ATCC19606, A. baumanii HAV#010, ATCC 19606, read-out: MIC): 64 mg/L (≈ 85.4 µM)
- MIC (E. faecium Line R & VRE; [6]): 8 mg/L (≈ 10.7 µM)
